Measurements published in patent US6548494B1, “Tricyclic inhibitors of poly(ADP-ribose) polymerases” (Agouron Pharmaceuticals, Inc., priority 1999, dated 2003).
Where “and” joins values, the source holds several entries; their conditions need not be identical. Identical values can stand only once. Like-named read-outs stand apart in the source and are kept apart here.

Key:
purified PARP protein = purified PARP protein (Homo sapiens, UniProt P09874); experiment: PARP enzyme inhibition assay; assay type: biochemical
[1] = 20 nM purified PARP (5 nM for tight-binding inhibitors), 500 μM NAD+, 25° C., several values in one cell = repeat determinations, read-out: Inhibition Constant Ki

Sequence of purified PARP protein (P09874 whole entry): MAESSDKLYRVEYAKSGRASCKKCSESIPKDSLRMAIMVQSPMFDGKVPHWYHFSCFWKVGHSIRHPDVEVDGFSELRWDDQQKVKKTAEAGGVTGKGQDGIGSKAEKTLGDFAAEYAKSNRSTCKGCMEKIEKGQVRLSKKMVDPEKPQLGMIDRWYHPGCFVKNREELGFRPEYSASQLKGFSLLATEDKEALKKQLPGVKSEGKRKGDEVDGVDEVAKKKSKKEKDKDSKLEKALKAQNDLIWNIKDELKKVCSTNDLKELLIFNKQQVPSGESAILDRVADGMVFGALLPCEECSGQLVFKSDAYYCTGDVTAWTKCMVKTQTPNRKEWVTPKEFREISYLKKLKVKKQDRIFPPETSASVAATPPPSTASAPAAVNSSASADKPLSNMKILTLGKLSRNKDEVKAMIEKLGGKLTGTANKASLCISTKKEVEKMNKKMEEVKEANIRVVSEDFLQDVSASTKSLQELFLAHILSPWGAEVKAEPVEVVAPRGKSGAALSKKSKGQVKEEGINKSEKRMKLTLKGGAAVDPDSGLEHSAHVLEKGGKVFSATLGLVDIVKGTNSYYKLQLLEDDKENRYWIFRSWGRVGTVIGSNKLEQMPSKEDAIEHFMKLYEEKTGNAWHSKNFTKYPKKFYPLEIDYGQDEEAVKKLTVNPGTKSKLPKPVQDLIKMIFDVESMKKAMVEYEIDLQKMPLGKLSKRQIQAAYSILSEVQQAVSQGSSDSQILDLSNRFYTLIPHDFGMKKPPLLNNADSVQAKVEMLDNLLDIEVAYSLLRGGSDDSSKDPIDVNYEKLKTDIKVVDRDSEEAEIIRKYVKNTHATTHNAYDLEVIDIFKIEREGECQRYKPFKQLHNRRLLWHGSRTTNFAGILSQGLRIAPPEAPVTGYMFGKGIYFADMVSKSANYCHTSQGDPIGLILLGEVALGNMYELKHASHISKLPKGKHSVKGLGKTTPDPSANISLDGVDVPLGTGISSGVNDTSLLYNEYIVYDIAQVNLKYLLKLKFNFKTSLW

Row | Compound | Ki (purified PARP protein; [1]) | melting point | Ki (purified PARP protein; Inhibition Constant Ki (nM))
1 | O=C1NCCn2c(-c3cccc(Oc4ccc(Cl)c(Cl)c4)c3)nc3cccc1c32 [Example 63, 1-[3-(3,4-Dichlorophenoxy)-phenyl]-8,9-dihydro-7H-2,7,9a-triaza-benzo[cd]azulen-6-one] | 13 nM | 252 to 254 °C (dec.) | 
2 | O=C1NCCn2c(-c3ccno3)nc3cccc1c32 [Example 13, 1-Isoxazol-5-yl-8,9-dihydro-7H-2,7,9a-triaza-benzo[cd]azulen-6-one] | 10.1 nM | 226 °C (dec.) | 
3 | NC(=O)c1ccc(Oc2ccc(-c3nc4cccc5c4n3CCNC5=O)cn2)cc1 [Example 116, 4-[5-(6-Oxo-6,7,8,9-tetrahydro-2,7,9a-triaza-benzo[cd]azulen-1-yl)-pyridin-2-yloxy]-benzamide] | 5.2 nM | 244 to 248 °C (dec.) | 
4 | O=C1NCCn2cc(C(O)c3ccccc3)c3cccc1c32 (stereo not drawn) [Example 166, 7-(1-Hydroxy-1-phenyl-methyl)-3,4-dihydro-2H-[1,4]diazepino[6,7,1-hi]indol-1-one] |  | 178 to 180 °C | 380 nM
5 | Cc1ccc(-c2nc(-c3nc4cccc5c4n3CCNC5=O)cs2)cc1 [Example 106, 1-(2-p-Tolyl-thiazol-4-yl)-8,9-dihydro-7H-2,7,9a-triaza-benzo[cd]azulen-6-one] | 8 nM | 308 to 313 °C | 
6 | O=Cc1cccc(-c2cc3cccc4c3n2CCNC4=O)c1 [Example 85, 3-(1-Oxo-1,2,3,4-tetrahydro-[1,4]diazepino[6,7,1-hi]indol-6-yl)-benzaldehyde] | 12 nM and 13 nM | 192 to 194 °C | 
7 | N#CCNCc1ccc(-c2nc3cccc4c3n2CCNC4=O)cc1 [Example 102, [4-(6-Oxo-6,7,8,9-tetrahydro-2,7,9a-triaza-benzo[cd]azulen-1-yl)-benzylamino]-acetonitrile] | 5.6 nM | 198 to 202 °C (dec.) | 
8 | O=C1NCCn2c(-c3ccc(-c4ncc[nH]4)cc3)nc3cccc1c32 [Example 152, 1-[4-(1H-Imidazol-2-yl)-phenyl]-8,9-dihydro-7H-2,7,9a-triaza-benzo[cd]azulen-6-one] | 3.2 nM | > 325 °C | 
9 | O=C(c1ccccc1)c1cn2c3c(cccc13)C(=O)NCC2 [Example 167, 7-(1-Benzoyl)-3,4-dihydro-2H-[1,4]diazepino[6,7,1-hi]indol-1-one] | 337 nM | 229 to 230 °C | 
10 | O=C1NCCn2c(-c3ccc(CN4CC[S+]([O-])CC4)cc3)nc3cccc1c32 [Example 122, 1-[4-(Oxo-1λ^4-thiomorpholin-4-ylmethyl)-phenyl]-8,9-dihydro-7H-2,7,9a-triaza-benzo[cd]azulen-6-one] | 7 nM | 247 °C (dec.) | 
11 | CN(C)c1cc(-c2nc3cccc4c3n2CCNC4=O)ccn1 [Example 71, 1-(2-Dimethylamino-pyridin-4-yl)-8,9-dihydro-7H-2,7,9a-triaza-benzo[cd]azulen-6-one] | 13 nM | 266 to 268 °C | 
12 | CN(C)CCOc1ccc(-c2nc3cccc4c3n2CCNC4=O)cc1 [Example 124, 1-[4-(2-Dimethylamino-ethoxy)-phenyl]-8,9-dihydro-7H-2,7,9a-triaza-benzo[cd]azulen-6-one] | 8 nM | 184 to 186 °C | 
13 | CNCc1cccc(-c2nc3cc(F)cc4c3n2CCNC4=O)c1 [Example 72, 1-(3-Methylaminomethyl-phenyl)-4-fluoro-8,9-dihydro-7H-2,7,9a-triaza-benzo[cd]azulen-6-one] | 3.5 nM | 196 to 198 °C | 
14 | O=C1NCCn2c(-c3cccc(Cc4ccccc4)c3)nc3cccc1c32 [Example 67, 1-(3-Benzylphenyl)-8,9-dihydro-7H-2,7,9a-triaza-benzo[cd]azulen-6-one] | 9.3 nM | 205 to 208 °C | 
15 | NC(=S)c1c(-c2ccc(F)cc2)n2c3c(cccc13)C(=O)NCC2 [Example 153, 6-(4-Fluoro-phenyl)-1-oxo-1,2,3,4-tetrahydro-[1,4]diazepino[6,7,1-hi]indole-7-carbothioic Acid Amide] | 219 nM | 238 to 240 °C | 
